The test system of series [1] is MDA-MB-231. The series can be described thus: Antiproliferation CCK-8 assay, MDA-MB-231. It counts as cell-based. The settings on record: Homo sapiens, CCK-8, 72 h. As to the method:
(§1) The HepG2, MDA-MB-231, and HCT116 cell lines were derived from our own laboratory (the laboratory of our collaborator, Dr. Xiaolei Zhou, at College of Food Science and Biology in Hebei University of Science and Technology). The antiproliferative activities were assessed using the CCK-8 assay. Cell viability was measured according to the manufacturer’s instructions for the Cell Counting Kit-8 (Meilunbio, Dalian, China). In this assay, 2.5 × 10^3 cells per well were seeded into 96-well plates.
(§2) After an initial 12 h incubation, cancer cells were exposed to varying concentrations of compound 17c for 72 h. Following CCK-8 solution addition and 2 h incubation, the absorbance at 450 nm was measured using a BioTek Synergy HTX microplate reader. Experiments included triplicate wells with three independent replicates. The IC50 values for compound 17c were derived from an analysis of the dose–response curves in GraphPad PRISM 9.5.
(Formazan colour is commonly taken as a measure of viable cells.)

For series [2], the system named is HCT116. Briefly: Antiproliferation CCK-8 assay, HCT116. Format: cell-based. The settings on record: for IC50: Homo sapiens, HCT-116. The procedure:
as §1, §2

Series [3] relates to CAKI-1 renal cancer. The series can be described thus: Antiproliferation CCK-8 assay, CAKI-1. Format: cell-based.
Series [4] is described as follows: Plasma protein binding, equilibrium dialysis, rat plasma. It counts as in vitro ADME. For orientation: Equilibrium dialysis compares concentrations on both sides of a semipermeable membrane.
Series [5] can be described thus: Pharmacokinetics in SD rats. Format: in vivo. The settings on record: rat; for MRT inf: read-out: MRTINF_obs. The procedure: Male and female SD rats (SLRC Laboratory Animal Inc., Shanghai, China) were used for the study. In the oral (PO) administration, 3 rats per group were given a single 10 mg/kg dose. Blood samples (100 μL per time point) were collected via jugular vein cannula and taken at 5, 15, and 30 min, and 1, 2, 4, 8, and 24 h post-dose. For the intravenous (IV) administration, 3 rats per group received 2.0 mg/kg, and blood samples were collected at 5, 15, and 30 min, and 1, 2, and 4 h after dosing. Rats were fasted overnight prior to dosing and remained fasted for 6 h post-dose. Plasma was separated by centrifugation and stored at –40 °C until analysis. Compound concentrations were determined by LC/MS/MS (Shimadzu LC-30AD), and pharmacokinetic parameters, including Cmax, Tmax, T1/2, and AUC0-inf, were calculated.

Series [6] deals with HCT116 cells. Briefly: TUNEL apoptosis assay in HCT116 cells. Conditions: 48 h. It counts as cell-based. As to the method:
Apoptosis was analyzed in a dose-dependent manner using the One Step TUNEL Apoptosis Assay Kit (Meilunbio, Dalian, China). HCT116 cells (1.5 × 10^4 cells/well) were seeded onto TC-treated glass coverslips in 24-well plates and incubated for 24 h. Following this, the cells were exposed to varying concentrations of compound 17c for 48 h. After treatment, the cells were fixed with 4% paraformaldehyde and permeabilized with 0.3% Triton-X-100. TUNEL staining was performed as per the manufacturer’s guidelines, with DAPI used for nuclear counterstaining. Fluorescent images were obtained using an Olympus microscope. The ED50 value for compound 17c was calculated using GraphPad PRISM 9.5. Each assay was performed in triplicate and repeated three times for consistency.

The test system of series [7] is c-Met kinase phosphorylation. The series can be described thus: Western blot, c-Met phosphorylation in HCT116 cells. Format: cell-based, human. Conditions: 2.5 μM, 24 h, compared to the positive control. As to the method:
Western blot assay was performed according to established protocols. HCT colon cancer cells were exposed to the specified concentration of compound 17c for 24 h, after which whole cell lysates were prepared using RAPI cell lysis buffer (Beyotime Institute of Biotechnology, Shanghai, China). Primary antibodies, purchased from Beyotime Institute of Biotechnology, were diluted at a ratio of 1:2000. The protein bands on polyvinylidene fluoride membranes were visualized and analyzed using Glyco Band-Scan Software Version 4.50. The antibody details are as follows:
Name: Phospho-c-Met (Tyr1234) antibody, Species: Rabit, Sequence: synthesized peptide derived from human c-Met around the Phosphorylation site of Tyr1234, Dilution: 1:2000, RRID number: AB_2834564, Catalogue number: AF3129, Supplier: Affinity Biosciences (Beijing, China).

[8] abbreviates: both sexes, plasma, iv, SD rats, 2 mg/kg.
Where [9] appears, read: both sexes, plasma, po, SD rats, 10 mg/kg.

SMILES strings stand for the structures. Like-named read-outs stand apart in the source and are kept apart here.

These results are taken from paper PMC12385147, “Discovery of Novel 2-Substituted Aniline Pyrimidine Based Derivatives as Potent Mer/c-Met Dual Inhibitors with Improvement Bioavailability” (Biomolecules, 2025).

For `Cc1c(C(=O)Nc2ccc(Oc3ccnc(Nc4cccc(OC5CCN(C)CC5)c4)n3)cc2)c(=O)n(-c2ccccc2)n1C` [compound 17c, 1,5-dimethyl-N-(4-((2-((3-((1-methylpiperidin-4-yl)oxy)phenyl)amino)pyrimidin-4-yl)oxy)phenyl)-3-oxo-2-phenyl-2,3-dihydro-1H-pyrazole-4-carboxamide], the 50% inhibitory concentration (IC50) in series [1] stood at 2310 ± 670 nM; in series [2] (CCK-8, 72 h, read-out: IC50 HCT116), 3790 ± 1090 nM; in series [2] (CCK-8, read-out: IC50 HCT116 cells), 460 ± 60 nM; in series [3] (Homo sapiens, CAKI-1, CCK-8, read-out: IC50 CAKI-1 cells) it was 2310 ± 670 nM. For the same compound, the “fold improvement over cabozantinib” value in series [2] (HCT116 cells) is 17.1 fold. For the same compound, in series [3] (CAKI-1 cells), the “fold enhancement compared to cabozantinib” value is given as 2.0 fold. Moreover, the “Mean Fb” value in series [4] (1 μM) was 98.2%. Besides, in series [4] (1 μM, 6 h at 37 °C), the “Stability (%)” value came to 102.2%. The fraction unbound at 6 h, 1 μM in series [4] (fraction, read-out: Mean Fu) stood at 0.0178. Further, the exposure AUC(0-t) in series [5] (setting [8]) is 2150 ng·h/mL; in series [5] (setting [9]) it was 4630 ng·h/mL. Moreover, the half-life was 200 min in series [5] (setting [8]) and 208 min in series [5] (setting [9]). The clearance in series [5] (both sexes, plasma, iv, SD rats, i.v., 2 mg/kg, read-out: CL_obs) came to 16.4 mL/min/kg. Besides, the MRT inf amounted to 3.23 h in series [5] (both sexes, plasma, iv, SD rats, i.v., 2 mg/kg) and 6.52 h in series [5] (both sexes, plasma, po, SD rats, p.o., 10 mg/kg). Moreover, the bioavailability in series [5] (both sexes, plasma, oral, SD rats, p.o. 10 mg/kg vs i.v. 2 mg/kg, read-out: F (oral bioavailability)) turned out to be 45.3%. Also, the Cmax in series [5] (setting [9]) stood at 740 ng/mL. Moreover, in series [5] (setting [9]), the time of peak concentration (Tmax) came to 4 h. Moreover, the “oral bioavailability, fold higher than 18c” value in series [5] (in vivo, po) amounted to 16 fold. Moreover, in series [6], the “ED50 apoptosis (TUNEL-positive cells)” value came out at 2.036 µM. Besides, in series [7], the “inhibition of c-Met kinase phosphorylation” value is on record as “significantly inhibited the phosphorylation”.

The IC50 is the concentration that gives 50% inhibition. By AUC(0-t) is commonly meant the area under the concentration-time curve up to a stated or last time point. The low end stands for less exposure, the high end for more exposure. As usually defined, the half-life is the time in which the quantity being followed falls by half. Low values mean rapid decline, high ones slow decline. The term bioavailability denotes the share of a dose that reaches the circulation, judged against a reference dose that is usually intravenous. As a reminder, the Cmax is the maximum level reached in the sampled fluid or tissue. Broadly, the Tmax is the time at which the peak concentration occurs.
